13 molecules from patent US20230151434A1, “REAWAKENING OF DORMANT TUMOR CELLS BY MODIFIED LIPIDS DERIVED FROM STRESS ACTIVATED NEUTROPHILS” (The Wistar Institute of Anatomy and Biology, priority 2020, published 2023) can be followed below.

Read-outs that look alike come from different tables or passages of the source.

Data set [1] deals with PMN. Kind of data set: S100A8/A9 release by PMN measured by ELISA. Type of data set: cell-based, mouse. On the procedure: PMN or PMN-MDSC were isolated from spleen of tumor-free mice or LLC tumor-bearing mice, respectively. A total of 5×10^5 LLC cells were injected into the right flank of mice, and spleens were harvested when tumors reached 200 mm^2. Spleens were mechanically dissociated. Red blood cells were lysed with ACK buffer cells. Splenocytes were stained with mouse biotin-conjugated Ly6G antibody (Miltenyi Biotec) followed by biotin microbeads. Ly6G+ cells were purified by magnetic separation with MACS column for magnetic cell isolation, according to the manufacturer's instructions (Miltenyi Biotec).
One hundred microliters of mouse peripheral blood was collected from facial vein. NE was measured by a mouse NE ELISA Kit (Novus Biologicals). S100A8/A9 was measured by Mouse S100A8/S100A9 Heterodimer DuoSet ELISA (R&D Systems). S100A8/A9 concentrations in human serum samples were determined by using a double-sandwich ELISA system as previously described (64), which is different from commercial ELISA kits. Human NE was measured using an ELISA kit (Abnova).
A general note: ELISA stands for enzyme-linked immunosorbent assay.

Another data set relates to KPr^p53A cells. In words: In vitro co-culture of dormant tumor cells with PMN (count of GFP+ cells). Type of data set: cell-based, mouse. The conditions noted are these: for reactivation/proliferation of KPr^p53A cells cultured with PMN plus supplement: supplement added with PMN, LPS 0.5 to 2 μg/ml. Here is the method: (§1) The KPr cell line (16) was maintained in RPMI 1640 medium (Corning) and 10% FBS (Gibco). Treatment of KPr cells with 250 nM 4-hydroxytamoxifen (4-OHT, Sigma-Aldrich) induced p53 expression. p53-induced cells (KPr^p53) were stained with CellTrace dye for 20 min at 37° C. according to the manufacturer's instructions (Life Technologies) and seeded at 8500 cells/cm^2 in culture in a T175 tissue culture-treated flask (Gibco). After 7 days, cells were detached and sorted based on the CellTrace dye intensity as proliferating (KPr^p53P, with lower CellTrace) and arrested cells (KPr^p53A, with higher-intensity CellTrace; see FIG. 1A for representative image). LL2 cells were seeded at 1000 cells/cm2 and treated for 3 days with 2.5 μM cisplatin (Selleckchem). After that, cells were stained with CellTrace and sorted as described above. OVCAR3 cell senescence was induced by treating 5×10^4 cells/cm2 with 0.5 μM cisplatin for 72 hours. After that time, cells were stained with CellTrace and sorted. A549 senescence was induced by 72-hour treatment with 4 μM cisplatin and cells were sorted after staining with CellTrace. Time points for sorting were chosen as the best to observe separation between arrested and proliferating cells. Cells were sorted on Astrios (Beckman Coulter) or Melody (Becton Dickinson) fluorescence-activated cell sorters.
(§2) Arrested tumor cells were plated at 100 cells/cm^2 in a 48-well tissue culture-treated plate (Costar) for coculture experiments. After 24 hours, PMN-MDSC or PMN were added at indicated ratios. Cocultures were maintained for 48 hours in RPMI 1640+10% FBS in the presence of mouse recombinant GM-CSF (10 ng/ml; Rocky Hill) to ensure neutrophil viability. All control conditions were in the presence of media with GM-CSF. All indicated supplements (NE, S100A8/A9, BGJ398, ICI 118-551, IL-2, MPO inhibitor, LPS, lipids, PMA, and thapsigargin 1 μM) were added to culture at the same time as PMN and maintained for 48 hours. After that, media were removed and replaced by fresh media without GM-CSF. After 1 week, GFP^+ cells in wells were counted via an inverted microscope. When lipid extracts were used, lipids were added to dormant cells in culture at 1 to 0.05 or 0.01 nmol as indicated in each experiment.

The subject of data set [2] is LL2^cisA and AT-3^DoxA cells. Kind of data set: In vitro co-culture of chemotherapy-arrested mouse tumor cells with PMN. The format is cell-based. The note with it: LL2^cisA, AT-3^DoxA. Here is the method:
as §1, §2

The test system of data set [3] is A549^cisA and OVCAR3^cisA cells. In words: In vitro co-culture of chemotherapy-arrested human tumor cells with human PMN. Type of data set: cell-based. The conditions noted are these: A549^cisA, OVCAR3^cisA. On the procedure:
as §1, §2

For data set [4], the system named is PMN. Kind of data set: PMN viability (proportion of live PMN). Type of data set: cell-based, mouse. Here is the method: FIG. 2A-FIG. 2K show neutrophil-mediated reactivation of dormant cells is regulated by stress-induced S100A8/A9. (FIG. 2A) Fold increase in the number of KPr^p53A cells cultured in the presence of PMN and S100A8/A9 or indicated cytokines relative to KPr^p53A cells cultured with PMN. Three independent experiments with 16 replicates were performed. Mean±SEM of one experiment is shown. (FIG. 2B) Fold increase in the number of KPr^p53A cells cultured in the presence of PMN and LPS relative to KPr^p53A cells cultured with PMN or alone. Means±SEM of three independent experiments with 16 replicates each are shown. (FIG. 2C) Fold increase in the number of KPr^p53A cells cultured in the presence of S100A8/A9 alone, PMN and S100A8/A9, or PMN-MDSC relative to KPr^p53A cultured alone. Means±SEM of 10 independent experiments with 16 replicates each are shown. (FIG. 2D) S100A8/A9 protein produced by PMN after treatment with indicated hormones or LPS was measured by ELISA. PMN-MDSC were isolated from spleens of Lewis lung carcinoma tumor-bearing mice. Means±SEM and results of each independent experiment with three replicates are shown. (FIG. 2E) S100A8/A9 protein secreted in vitro from PMN and PMN treated with NE with or without ICI-118; […] as measured by ELISA. Means±SEM and results of independent experiment with three replicates are shown. (FIG. 2F) Flow cytometry staining of ADRB2 receptor (dark gray) on PMN isolated from mouse spleen. Isotype control, light gray. Representative histogram of three experiments is shown. (FIG. 2G) Fold increase in the number of KPr^p53A cells cultured with PMN alone, NE alone, PMN and NE together, and PMN and NE plus ICI-118; 553 relative to KPr^p53A cells cultured alone (Ctrl). Ten independent experiments with 16 replicates for each experiment were performed. Means±SEM in a representative experiment are shown. (FIG. 2H) Number of KPr^p53A cells cultured in the presence of PMN from S100a9KO mice alone or together with NE relative to KPr^p53A cells cultured alone (ctrl). Means±SEM are reported for 16 replicates. (FIG. 2I) Percentage of live PMN after overnight incubation with NE, S100A8/A9, or LPS. Each dot represents the average of three experimental replicates of one single experiment. Means±SEM are shown for each group. (FIG. 2J) Fold increase in number of LL2^CisA cells cultured with PMN alone or together with S100A8/A9 or NE relative to LL2^CisA cultured alone (Ctrl). Means±SEM of three independent experiments with 16 replicates each are shown. […] In all panels, P values were calculated using ANOVA test with correction for multiple comparisons.
FIG. 11A-FIG. 11G show the mechanism of dormant tumor cell reactivation. […] P values were calculated by ANOVA test with correction for multiple comparisons. […]

The subject of data set [5] is LL2, A549 and OVCAR3 cells. Kind of data set: Cisplatin-induced tumor cell dormancy. The format is cell-based, mouse; human. The conditions noted are these: LL2 2.5 μM, A549 4 μM, OVCAR3 0.5 μM, 72 hours. Here is the method: as §1, with “sorters. […]” for “sorters.”
The mark [6] stands for this setting: PMN treated with stress hormones or LPS.

`NC[C@H](O)c1ccc(O)c(O)c1` [NE, norepinephrine]: in the data set with PMN [1] (setting [6]), the “S100A8/A9 release by PMN” value is given as “caused rapid release of S100A8/A9 proteins”. The “reactivation/proliferation of KPr^p53A cells, supplement alone” value in the data set with KPr^p53A cells (absence of PMN) is “did not affect the proliferation of KPr^p53A cells”. Besides, in the data set with KPr^p53A cells, the “reactivation/proliferation of KPr^p53A cells cultured with PMN plus supplement” value is “caused proliferation of tumor cells”. Moreover, in data set [2], the “proliferation of arrested mouse tumor cells cultured with mouse PMN plus supplement” value was “reactivated dormant mouse and human tumor cells”. The “reactivation of arrested human tumor cells cultured with human PMN plus supplement” value in data set [3] is “reactivated dormant mouse and human tumor cells”. In addition, the PMN viability result in the data set with PMN [4] is “did not affect PMN viability”.

With `N.N.[Cl][Pt][Cl]` [cisplatin], the entries for the “induction of proliferation arrest / senescence-like phenotype in tumor cells” value in data set [5] and in data set [5] (listed as Cisplatin) were “caused a senescence-like phenotype in tumor cells in vitro” and “generated proliferation-arrested cells”, respectively.

With TNF a, in the data set with KPr^p53A cells, the “reactivation/proliferation of KPr^p53A cells cultured with PMN plus supplement” value is “did not induce their ability to reactivate dormant KPr^p53A cells”.

Regarding Lipopolysaccharide [LPS], the “reactivation/proliferation of KPr^p53A cells cultured with PMN plus supplement” value in the data set with KPr^p53A cells is recorded as “did not affect the ability of PMN to reactivate KPr^p53A cells”. Moreover, the PMN viability entry in the data set with PMN [4] (overnight incubation) was “markedly reduced it”.

Turning to `NCCc1c[nH]c2ccc(O)cc12` [serotonin], in the data set with PMN [1] (setting [6]), the “S100A8/A9 release by PMN” value is “caused rapid release of S100A8/A9 proteins”.

In the case of `C/C=C(/C)C(=O)O[C@H]1C(C)=C2[C@H]([C@@H]1OC(=O)CCCCCCC)[C@@](C)(OC(C)=O)C[C@H](OC(=O)CCC)[C@@]1(O)[C@H]2OC(=O)[C@@]1(C)O` [thapsigargin], the “reactivation/proliferation of KPr^p53A cells cultured with PMN plus supplement” value in the data set on KPr^p53A cells is listed as “did not induce their ability to reactivate dormant KPr^p53A cells”.

Take IL-6: proinflammatory cytokine: the “reactivation/proliferation of KPr^p53A cells cultured with PMN plus supplement” value in the data set with KPr^p53A cells is given as “did not induce their ability to reactivate dormant KPr^p53A cells”.

As to PE (18:0p/20:4) [Untreated PE], the “proliferation of KPr^p53A cells cultured with lipids” value with KPr^p53A cells (lipids added to dormant cells, no PMN) is “did not activate proliferation of KPr^p53A cells”.

As to `CCCCCCCCCCCCCC(=O)O[C@@H]1[C@@H](C)[C@@]2(O)[C@@H](C=C(CO)C[C@]3(O)C(=O)C(C)=C[C@@H]23)[C@@H]2C(C)(C)[C@]12OC(C)=O` [PMA, phorbol 12-myristate 13-acetate], the “reactivation/proliferation of KPr^p53A cells cultured with PMN plus supplement” value in the data set on KPr^p53A cells is given as “did not induce their ability to reactivate dormant KPr^p53A cells”.

For the molecule `C[C@]12CCC(=O)C=C1CC[C@@H]1[C@@H]2[C@@H](O)C[C@@]2(C)[C@H]1CC[C@]2(O)C(=O)CO` [cortisol], the “S100A8/A9 release by PMN” value in the data set with PMN [1] (setting [6]) was “caused rapid release of S100A8/A9 proteins”.

For `CNC[C@H](O)c1ccc(O)c(O)c1` [epinephrine], the “S100A8/A9 release by PMN” value in the data set on PMN [1] is listed as “caused rapid release of S100A8/A9 proteins”.

B1: human S100A8/A9: human recombinant S100A8/A9 (protein, UniProt P05109 1-93; P06702 1-114, looked up)
Protein S100-A8: MLTELEKALNSIIDVYHKYSLIKGNFHAVYRDDLKKLLETECPQYIRKKGADVWFKELDINTDGAVNFQEFLILVIKMGVAAHKKSHEESHKE
Protein S100-A9: MTCKMSQLERNIETIINTFHQYSVKLGHPDTLNQGEFKELVRKDLQNFLKKENKNEKVIEHIMEDLDTNADKQLSFEEFIMLMARLTWASHEKMHEGDEGPGHHHKPGLGEGTP
With B1, in data set [3], the “reactivation of arrested human tumor cells cultured with human PMN plus supplement” value is “reactivation of A549^cisA and OVCAR3^cisA cells”.

B2: IL-10: proinflammatory cytokine as printed (protein, UniProt P22301 19-178, looked up)
Interleukin-10: SPGQGTQSENSCTHFPGNLPNMLRDLRDAFSRVKTFFQMKDQLDNLLLKESLLEDFKGYLGCQALSEMIQFYLEEVMPQAENQDPDIKAHVNSLGENLKTLRLRLRRCHRFLPCENKSKAVEQVKNAFNKLQEKGIYKAMSEFDIFINYIEAYMTMKIRN
Regarding B2, the “reactivation/proliferation of KPr^p53A cells cultured with PMN plus supplement” value with KPr^p53A cells is given as “did not induce their ability to reactivate dormant KPr^p53A cells”.
